Measured values taken from ChEMBL document CHEMBL4414659, “Chemical Constituents from the Aerial Parts of Agastache rugosa and Their Inhibitory Activities on Prostaglandin E2 Production in Lipopolysaccharide-Treated RAW 264.7 Macrophages” (J Nat Prod, 2019).
pIC50: −log10 of the molar value.

system: RAW264.7; assay: Antiinflammatory activity against LPS-stimulated mouse RAW264.7 cells assessed as decrease in PGE2 production preincubated for 1 hr followed by LPS stimulation and measured after 24 hrs by ELISA; assay type: functional, cell-based

Row | pIC50 | Compound
1 | 5.13 | COc1ccc(-c2cc(=O)c3c(O)cc(O[C@@H]4O[C@H](CO)[C@@H](O)[C@H](O)[C@H]4O)cc3o2)cc1 [TILIANINE]
2 | 5.77 | C=CCc1ccc(O[C@@H]2O[C@H](CO)[C@@H](O)[C@H](O)[C@H]2O)c(OC)c1 [CITRUSIN C]
3 | < 4.30 | COc1cc(/C=C/C(=O)OC[C@H]2O[C@@H](OCC/C=C\C[C@H]3C(=O)CC[C@@H]3CC(=O)O)[C@H](O)[C@@H](O)[C@@H]2O)ccc1O
4 | 5.37 | CCOC(=O)[C@@H](Cc1ccc(O)c(O)c1)OC(=O)/C=C/c1ccc(O)c(O)c1 [ETHYL ROSMARINATE]
5 | 5.49 | C=CCc1ccc(O[C@@H]2O[C@H](CO)[C@@H](O)[C@H](O)[C@H]2O)c(O)c1
6 | 4.73 | COc1ccc(-c2cc(=O)c3c(O)cc(O[C@@H]4O[C@H](COC(=O)CC(=O)O)[C@@H](O)[C@H](O)[C@H]4O)cc3o2)cc1
7 | 5.21 | COc1ccc(-c2cc(=O)c3c(O)cc(O)cc3o2)cc1 [ACACETIN]
8 | < 4.30 | COc1ccc(C(=O)O)cc1 [p-ANISIC ACID]
9 | 8.17 | CS(=O)(=O)Nc1ccc([N+](=O)[O-])cc1OC1CCCCC1 [NS-398]
10 | 5.70 | CCOC(=O)/C=C/c1ccc(O)c(O)c1 [ETHYL CAFFEATE]
11 | 4.84 | O=C(CCc1ccc(O)cc1)c1c(O)cc(O)cc1O[C@@H]1O[C@H](CO)[C@@H](O)[C@H](O)[C@H]1O [PHLORIZIN]
12 | 4.74 | C=CCc1ccc(O[C@@H]2O[C@H](CO)[C@@H](O)[C@H](O)[C@H]2O)cc1
13 | 4.77 | CC1=CC(=O)CC(C)(C)[C@H]1/C=C/[C@@H](C)O[C@@H]1O[C@H](CO)[C@@H](O)[C@H](O)[C@H]1O
14 | 5.08 | COc1ccc(-c2cc(=O)c3c(O)cc(O)cc3o2)cc1O [DIOSMETIN]
15 | < 4.30 | COc1ccc(-c2cc(=O)c3c(O)cc(O[C@@H]4O[C@H](CO)[C@@H](O)[C@H](O)[C@H]4O)cc3o2)cc1O
16 | 4.95 | COC(=O)[C@@H](Cc1ccc(O)c(O)c1)OC(=O)/C=C/c1ccc(O)c(O)c1 [METHYL ROSMARINATE]

Row | pIC50 | Compound
17 | 4.47 | O=C(/C=C/c1ccc(O)c(O)c1)O[C@H](Cc1ccc(O)c(O)c1)C(=O)O [ROSMARINIC ACID]
18 | 4.77 | COc1ccc(-c2cc(=O)c3c(O)cc(O[C@@H]4O[C@H](COC(=O)CC(=O)O)[C@@H](O)[C@H](OC(C)=O)[C@H]4O)cc3o2)cc1
19 | 4.31 | C=CCc1ccc(O[C@@H]2O[C@H](COC(C)=O)[C@@H](O)[C@H](O)[C@H]2O)cc1
20 | 5.33 | COc1ccc(-c2cc(=O)c3c(O)cc(O[C@@H]4O[C@H](CO)[C@@H](O)[C@H](O)[C@H]4OC(C)=O)cc3o2)cc1
21 | 4.47 | COc1cc(/C=C/C(=O)OC[C@H]2O[C@@H](Oc3ccccc3C(=O)O)[C@H](O)[C@@H](O)[C@@H]2O)ccc1O
22 | 5.42 | O=C(/C=C/c1ccc(O)c(O)c1)O/C=C\c1ccc(O)c(O)c1 [NEPETOIDIN B]
23 | 4.84 | C=CCc1ccc(O[C@@H]2O[C@H](COC(=O)CC(=O)OC)[C@@H](O)[C@H](O)[C@H]2O)cc1
24 | 4.87 | O=c1cc(-c2ccc(O)cc2)oc2cc(O)cc(O)c12 [APIGENIN]
25 | < 4.30 | O=c1cc(-c2ccc(O)cc2)oc2cc(O[C@@H]3O[C@H](CO)[C@@H](O)[C@H](O)[C@H]3O)cc(O)c12 [APIGETRIN]
26 | 4.54 | COc1ccc(-c2cc(=O)c3c(O)cc(O[C@@H]4O[C@H](COC(=O)CC(=O)O)[C@@H](O)[C@H](O)[C@H]4OC(C)=O)cc3o2)cc1
27 | 5.21 | O=c1cc(-c2ccc(O)c(O)c2)oc2cc(O[C@@H]3O[C@H](CO)[C@@H](O)[C@H](O)[C@H]3O)cc(O)c12 [GALUTEOLIN]
28 | 5.41 | COC(=O)/C=C/c1ccc(O)c(O)c1 [METHYLCAFFEATE]
29 | 5.39 | C=CCc1ccc(O)c(O[C@@H]2O[C@H](CO)[C@@H](O)[C@H](O)[C@H]2O)c1
30 | < 4.30 | COc1ccc([C@@H]2CC(=O)c3c(O)cc(O[C@@H]4O[C@H](CO)[C@@H](O)[C@H](O)[C@H]4O)cc3O2)cc1
31 | < 4.30 | COc1ccc(-c2cc(=O)c3c(O)cc(O[C@@H]4O[C@H](CO)[C@@H](O)[C@H](OC(C)=O)[C@H]4O)cc3o2)cc1

Row | Compound | pIC50
32 | O=c1cc(-c2ccc(O)c(O)c2)oc2cc(O)cc(O)c12 [LUTEOLIN] | 5.09
